Test results from publication PMC7155171, “Probing the Open Global Health Chemical Diversity Library for Multistage-Active Starting Points for Next-Generation Antimalarials” (ACS Infectious Diseases, 2020).

Tests used:
[1] = biological target: recombinant firefly luciferase (Photinus pyralis, UniProt P08659); assay: biochemical; conditions: dose response; for Emax: maximum inhibition, read-out: rLuc inhibition dose response: Maximum inhibition (%); for IC50: read-out: rLuc inhibition dose response: IC50
[2] = tested on: P. berghei liver stage (PbLuc); assay: P. berghei luciferase liver stage (PbLuc) assay in HepG2-A16-CD81 hepatocytes; assay type: cell-based, Plasmodium berghei; conditions: Plasmodium berghei; for IC50: HepG2-A16-CD81, 12pt dose response, read-out: PbLuc 12pt dose response: IC50; for Emax: HepG2-A16-CD81, 48 h, 12pt dose response, maximum inhibition
[3] = tested on: HepG2-A16-CD81 hepatocytes; assay: HepG2 cytotoxicity screening (CellTiter-Glo); conditions: for HepG2 cytotoxicity 12pt dose response: Maximum inhibition (%): 12pt dose response
[4] = HepG2 cytotoxicity screening (CellTiter-Glo); conditions: human, uninfected HepG2-A16-CD81 (EGFP) hepatocytes

Sequence of recombinant firefly luciferase (P08659 whole entry): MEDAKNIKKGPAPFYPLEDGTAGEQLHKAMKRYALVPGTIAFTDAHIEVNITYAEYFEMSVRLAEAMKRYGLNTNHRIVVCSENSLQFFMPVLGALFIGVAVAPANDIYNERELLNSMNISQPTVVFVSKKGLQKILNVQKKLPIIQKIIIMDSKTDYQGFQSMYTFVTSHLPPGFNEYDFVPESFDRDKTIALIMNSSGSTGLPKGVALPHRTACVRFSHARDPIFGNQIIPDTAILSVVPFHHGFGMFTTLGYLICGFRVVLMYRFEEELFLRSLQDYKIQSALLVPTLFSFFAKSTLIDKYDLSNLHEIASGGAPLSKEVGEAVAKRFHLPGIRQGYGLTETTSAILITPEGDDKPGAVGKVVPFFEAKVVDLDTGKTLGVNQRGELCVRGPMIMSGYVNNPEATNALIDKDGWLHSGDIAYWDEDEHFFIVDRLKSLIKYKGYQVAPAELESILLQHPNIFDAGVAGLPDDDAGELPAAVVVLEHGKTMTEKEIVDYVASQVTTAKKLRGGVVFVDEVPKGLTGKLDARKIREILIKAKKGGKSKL

Structure (SMILES) | Emax [1] | IC50 [1] | IC50 [2] | Emax [2] | HepG2 cytotoxicity 12pt dose response: Maximum inhibition (%) [3] | IC50 [4] | inhibition at 2 µM [4] | HepG2 Cytotoxicity primary screen (2uM): % Inhibition [3]
CCc1cnc(N)nc1NC(C)c1ccc(C)c(C)c1 (stereo not shown) [UCSD-0831195] | 17.1% | > 50 µM | 0.433 µM | 89.9% | 56% | > 25 µM | 3.76% | 
Cc1cc(CN2CCN(C(c3ccccc3)c3ccccc3)CC2)no1 [UCSD-0846071] | 14.1% | > 25 µM | 8.97 µM | 104% | 4.68% | > 25 µM | 0.21% | 
CCNc1ccnc(CN2CCCC2C(=O)Nc2nccs2)c1 (stereo not shown) [UCSD-0809356] | 21.2% | > 25 µM | 4.46 µM |  | 2.09% | > 25 µM |  | 1.30%
COc1ccc(-c2nc(CN3CC(n4cc(C)cn4)C3)no2)cc1 [UCSD-0819446] | 6.87% | > 25 µM | 11.2 µM | 82.5% | 1.19% | > 25 µM |  | -12.79%
N#Cc1c(Cl)nsc1NCC1(c2ccccc2)CCC1 [UCSD-0818294] | 16.9% | > 25 µM | 13.2 µM | 98.3% | 34.3% | > 25 µM |  | 11.95%
Cc1cc(NC(=O)c2ccc(CN3CC[C@H](O)C3)cc2)ccc1F [UCSD-0834308] | 100% | < 0.0244 µM | < 0.000282 µM | 104% | 10.3% | > 50 µM | 7.88% | 
CC(C)(C)n1ncc2c1CCCC2NCc1ccc2c(c1)OCCO2 (stereo not shown) [UCSD-0811309] | 85% | 15 µM | 8.69 µM | 87% | 2.92% | > 25 µM | -4.43% | 
COCCCNC1N=C(n2nc(C)cc2C)Nc2sc3c(c21)CCCC3 (stereo not shown) [UCSD-0796603] | 17.3% | > 25 µM | 4.36 µM | 98.7% | -1.93% | > 25 µM |  | 2.66%
CCOc1ccc(CN2CCCC(c3cc4ncccc4[nH]3)C2)cc1 (stereo not shown) [UCSD-0798855] | 20.7% | > 25 µM | 5.76 µM | 90.3% | 11.6% | > 25 µM | 9.74% | 
Cc1noc(NC(=O)c2ccc(Br)s2)n1 [UCSD-0844983] | -1.54% | > 25 µM | 14.7 µM | 88.4% | 28.5% | > 25 µM |  | 5.11%
COc1cc(CN(C)C(=O)Cc2c(C)nn(C)c2C)ccc1OC(F)F [UCSD-0819780] | 6.77% | > 25 µM | 2.11 µM | 80.1% | 55.1% | > 25 µM | 7.57% | 
CCN1CC(CN(C)c2cc(C)nc(N)n2)Oc2ccccc21 (stereo not shown) [UCSD-0806866] | 15.4% | > 25 µM | 5.15 µM | 93.5% | 73.7% | 20.6 µM | -3.08% | 
Fc1ccc(N2CCCN(c3ccc(Cn4ccnc4)cn3)CC2)cc1 [UCSD-0828381] | 34.7% | > 25 µM | 1.16 µM | 98.9% | 52.6% | 23.9 µM |  | 3.83%
Cc1cc(C(=O)N2CCN(c3nc4c(C(C)C)cccc4s3)CC2)no1 [UCSD-0787009] | 34.2% | > 50 µM | 0.822 µM | 98.9% | 1.29% | > 25 µM |  | 
CN1CCOC(C(=O)Nc2ccc3c(c2)nc(C(C)(C)C)n3C)C1 (stereo not shown) [UCSD-0818200] | 88.4% | 13.4 µM | 0.00222 µM |  | 0.658% | > 25 µM |  | 
Nc1nccc(N2CCCC(CO)(CCOc3ccccc3)C2)n1 (stereo not shown) [UCSD-0838947] | 8.22% | > 25 µM | 6.46 µM | 89.7% | 51.4% | > 25 µM | -2.96% | 
CC(C)CN1CCCC1c1ccc(C(=O)Nc2cccnc2)s1 (stereo not shown) [UCSD-0828121] | 38.6% | > 25 µM | 9.26 µM |  | 5.88% | > 25 µM | 3.83% | 

Structure (SMILES) | Emax [1] | IC50 [1] | IC50 [2] | Emax [2] | HepG2 cytotoxicity 12pt dose response: Maximum inhibition (%) [3] | IC50 [4] | inhibition at 2 µM [4] | HepG2 Cytotoxicity primary screen (2uM): % Inhibition [3]
CCCc1cc(=O)[nH]c(-n2nc(C3CC3)cc2N)n1 [UCSD-0786964] | 12.2% | > 25 µM | 4.69 µM |  | 75.4% | 20.5 µM | -26.2% | 
Cc1cn2c(n1)C(CNCC1=Cc3ccccc3OC1)CCC2 (stereo not shown) [UCSD-0812993] | 66.8% | > 25 µM | > 2.78 µM | 93.1% | 24.6% | > 25 µM |  | -0.92%
CC(C)c1cc(=O)[nH]c(-n2nc(C3CC3)cc2N)n1 [UCSD-0786965] | 1.26% | > 25 µM | 1.61 µM | 83% | 73.6% | 18.9 µM | 3.79% | 
CCC1=NC(SCC(=O)c2ccccc2)c2cc(CC)sc2N1 (stereo not shown) [UCSD-0796974] | 7.45% | > 25 µM | > 25 µM | 42.1% | 3.82% | > 25 µM | 3.26% | 
CSc1ccc(CN2C[C@@H]3CC[C@@](O)(c4ccc(C)cn4)[C@@H]3C2)cc1 [UCSD-0801744] | 38.3% | > 25 µM | 23 µM | 66.8% | 9.86% | > 25 µM | 2.45% | 
CC(C)(C)OC(=O)N1CCCN(Cc2ccon2)c2ccccc21 [UCSD-0805052] | 18.4% | > 25 µM | 8.56 µM | 93.5% | 13.5% | > 25 µM | 10.4% | 
Cc1cc(C(=O)N2CCN(c3nc4c(C(C)C)cccc4s3)CC2)on1 [UCSD-0787150] | 11.6% | > 50 µM | 4 µM | 101% | 21.7% | > 25 µM |  | 
CC(C)c1n[nH]c(C(=O)Nc2ccccn2)c1Br [UCSD-0842403] | 97.1% | < 0.0244 µM | < 0.000282 µM | 97.3% | 31.1% | > 50 µM | 24.9% | 
O=C([C@H]1C[C@@H]2CCN(c3cccc(F)c3)C[C@H]2O1)N1CCCC1 [UCSD-0792262] | 28.4% | > 25 µM | 10.3 µM | 93.8% |  | > 25 µM |  | 4.38%
CC(C)(C)NC(=O)N1CCC(Oc2ccc(C(F)(F)F)cn2)CC1 [UCSD-0787817] | 13% | > 25 µM | 11.4 µM | 93.5% | 16.5% | > 25 µM |  | -4.73%
CC(=O)c1c(F)cccc1N1CCC(Cc2cccnc2)CC1 [UCSD-0819611] | 7.02% | > 25 µM | 4.23 µM | 116% | 73% | 15.4 µM | 15.8% | 
Nc1nc(CCC(=O)N2CCOC(CC3CCCCC3)C2)cs1 (stereo not shown) [UCSD-0838977] | 7.71% | > 25 µM | 15 µM | 93.7% | 8.43% | > 25 µM |  | -10.55%
Cn1cnc2c1CCN(Cc1csc(-c3ccccc3F)n1)C2 [UCSD-0598805] | 81.2% | 15 µM | < 0.000141 µM | 84.3% | 6.01% | > 25 µM | 0.19% | 
CC(=O)c1ccc(N2CCC(CO)(CCOc3ccccc3)CC2)nc1 [UCSD-0839049] | 13.2% | > 25 µM | 14.6 µM | 105% | 60.3% | > 25 µM |  | 17.47%
CCS(=O)(=O)N1CCc2ccc(NC(=O)Nc3cccc(F)c3)cc21 [UCSD-0785772] | 22.1% | > 25 µM | 9.31 µM | 90.3% | 50.2% | 17.8 µM | 17.6% | 
O=C(c1ccc(Br)o1)N1CCN(Cc2ccc(OC(F)(F)F)cc2)CC1 [UCSD-0819339] | 10.9% | > 25 µM | 9.24 µM | 97.7% | 57.1% | > 25 µM | 0% | 
